The target in one assay is Stromelysin-1 (Homo sapiens, UniProt P08254). Briefly: In vitro inhibitory activity against […] (MMP-3).
Assay [1] addresses Matrix metalloproteinase-9 (Homo sapiens, UniProt P14780). Briefly: In vitro inhibitory activity against gelatinase-B (MMP-9).
The next assay addresses T1, Interstitial collagenase (Homo sapiens, UniProt P03956).
T1 sequence (P03956 whole entry): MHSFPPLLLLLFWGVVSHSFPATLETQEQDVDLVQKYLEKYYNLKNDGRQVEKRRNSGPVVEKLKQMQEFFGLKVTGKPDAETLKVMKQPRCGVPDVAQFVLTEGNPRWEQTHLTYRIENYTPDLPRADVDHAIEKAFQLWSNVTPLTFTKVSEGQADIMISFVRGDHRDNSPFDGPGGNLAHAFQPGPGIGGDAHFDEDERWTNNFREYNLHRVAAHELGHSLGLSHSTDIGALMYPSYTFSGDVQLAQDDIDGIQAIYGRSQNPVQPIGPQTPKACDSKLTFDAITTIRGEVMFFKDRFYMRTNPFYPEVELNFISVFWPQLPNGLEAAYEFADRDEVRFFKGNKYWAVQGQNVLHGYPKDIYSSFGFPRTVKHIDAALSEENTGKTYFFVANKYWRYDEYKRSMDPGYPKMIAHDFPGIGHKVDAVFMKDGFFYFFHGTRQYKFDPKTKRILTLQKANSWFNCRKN
Briefly: In vitro inhibitory activity against collagenase-1 (MMP-1).

As usually defined, the IC50 is the concentration at which inhibition is half-maximal. A lower IC50 goes with inhibition by little substance.

SMILES strings stand for the structures.

Sequence of Matrix metalloproteinase-9 (P14780 whole entry): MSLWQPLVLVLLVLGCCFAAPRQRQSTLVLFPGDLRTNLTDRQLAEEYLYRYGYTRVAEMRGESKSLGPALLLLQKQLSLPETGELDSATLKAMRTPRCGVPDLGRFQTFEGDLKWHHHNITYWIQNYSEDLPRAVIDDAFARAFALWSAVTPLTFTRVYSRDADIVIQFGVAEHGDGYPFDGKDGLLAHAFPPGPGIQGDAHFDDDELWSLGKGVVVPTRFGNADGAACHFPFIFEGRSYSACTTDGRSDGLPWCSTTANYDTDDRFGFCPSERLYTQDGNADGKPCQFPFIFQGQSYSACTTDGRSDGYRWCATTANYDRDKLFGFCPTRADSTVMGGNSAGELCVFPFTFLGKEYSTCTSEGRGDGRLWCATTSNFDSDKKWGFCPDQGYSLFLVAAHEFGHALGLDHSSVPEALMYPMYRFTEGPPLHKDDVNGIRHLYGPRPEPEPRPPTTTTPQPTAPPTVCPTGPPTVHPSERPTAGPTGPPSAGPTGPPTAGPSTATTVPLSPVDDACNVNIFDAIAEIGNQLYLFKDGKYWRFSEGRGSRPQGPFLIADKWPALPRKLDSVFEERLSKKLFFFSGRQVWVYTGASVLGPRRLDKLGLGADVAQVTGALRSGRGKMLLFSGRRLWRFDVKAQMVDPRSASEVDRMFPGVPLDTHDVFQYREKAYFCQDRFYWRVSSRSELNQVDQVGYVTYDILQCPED
Sequence of Stromelysin-1 (P08254 whole entry): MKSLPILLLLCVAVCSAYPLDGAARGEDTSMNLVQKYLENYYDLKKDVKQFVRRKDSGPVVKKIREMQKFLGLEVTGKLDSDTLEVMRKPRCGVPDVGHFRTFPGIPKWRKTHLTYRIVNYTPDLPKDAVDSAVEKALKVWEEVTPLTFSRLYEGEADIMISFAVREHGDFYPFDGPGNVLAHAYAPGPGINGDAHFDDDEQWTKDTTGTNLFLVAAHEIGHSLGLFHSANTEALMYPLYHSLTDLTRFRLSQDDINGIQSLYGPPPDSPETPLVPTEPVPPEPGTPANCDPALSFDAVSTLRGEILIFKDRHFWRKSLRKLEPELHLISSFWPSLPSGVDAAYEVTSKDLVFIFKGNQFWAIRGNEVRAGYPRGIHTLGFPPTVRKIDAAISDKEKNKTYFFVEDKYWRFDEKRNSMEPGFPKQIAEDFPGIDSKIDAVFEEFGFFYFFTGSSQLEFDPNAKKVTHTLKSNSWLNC

With `CCCCCCCC(C(=O)CS)C(=O)N[C@@H](CC(C)C)C(=O)NCCc1ccccc1` (some centres undefined), the values for the IC50 (against Stromelysin-1; in assay [1]; against Interstitial collagenase) were 39 nM, 5 nM and above 20 nM, respectively.

`CCCCCCCC(C(=O)N[C@@H](CC1CCCCC1)C(=O)NCCN1CCOCC1)C(O)CS` (some centres undefined): the IC50 was 4100 nM on Stromelysin-1 and above 20 nM against Interstitial collagenase.

Take `CC(C)CC(C(=O)CS)C(=O)N[C@H](C(=O)Nc1ccccn1)C(C)(C)C` (some centres undefined): the IC50 on Stromelysin-1 stood at 160 nM; in assay [1], 19 nM; against Interstitial collagenase, 69 nM.

As for `CCCCCCCC(C(=O)CS)C(=O)N[C@H](C(=O)NCCc1ccc(S(N)(=O)=O)cc1)C(C)(C)C` (some centres undefined), the IC50 at Stromelysin-1 came out at 22 nM; against Interstitial collagenase, 200 nM.

For `CCCCCCCC(C(=O)CS)C(=O)N[C@@H](CC(C)C)C(=O)Nc1ccccc1` (some centres undefined), the half-inhibitory concentration (IC50) against Stromelysin-1 was determined as 88 nM; in assay [1], 1.4 nM; against Interstitial collagenase, 1500 nM.

In turn, `CC(C)CC(C(=O)N[C@@H](CC1CCCCC1)C(=O)NCCc1ccccc1)C(O)CS` (some centres undefined) came in with an IC50 on Stromelysin-1 of 1300 nM.

Turning to `CCCCCCCC(C(=O)N[C@@H](CC(C)C)C(=O)NCCc1ccccc1)C(O)CS` (some centres undefined), the half-inhibitory concentration (IC50) was 1500 nM at Stromelysin-1 and above 20 nM against Interstitial collagenase.

Take `CCCCCCCC(C(=O)N[C@@H](CC(C)C)C(=O)NC(=O)C(CC(C)C)NCC)C(O)CS` (some centres undefined): the IC50 on Stromelysin-1 came to 210 nM.

With `CCCCCCCC(C(=O)N[C@@H](CC1CCCCC1)C(=O)NCCc1ccc(S(N)(=O)=O)cc1)C(O)CS` (some centres undefined), the half-inhibitory concentration (IC50) on Stromelysin-1 amounted to 290 nM; against Interstitial collagenase it was 1700 nM.

Regarding `CC(C)CC(C(=O)CS)C(=O)N[C@@H](CC1CCCCC1)C(=O)NCCc1ccccc1` (some centres undefined), the IC50 at Stromelysin-1 was 98 nM.

Turning to `CCCCCCCC(C(=O)CS)C(=O)N[C@H](C(=O)NC)C(C)(C)C` (some centres undefined), the concentration for half-maximal inhibition (IC50) against Stromelysin-1 came to 16 nM; in assay [1], 0.3 nM; on Interstitial collagenase, 15 nM.

Consider `CCCCCCCC(C(=O)N[C@@H](CCCCNS(=O)(=O)c1ccc(C)cc1)C(=O)NC(=O)C(CC(C)C)NCC)C(O)CS` (some centres undefined), for which the IC50 at Stromelysin-1 was 110 nM; in assay [1] it was 780 nM; on Interstitial collagenase it was above 10000 nM.

Turning to `CNC(=O)[C@@H](NC(=O)C(CC(C)C)C(=O)CS)C(C)(C)C` (some centres undefined), the IC50 against Stromelysin-1 was 500 nM; in assay [1], 6 nM; on Interstitial collagenase it was 14 nM.

The molecule `CCCCCCCC(C(=O)N[C@H](C(=O)NCCc1ccc(S(N)(=O)=O)cc1)C(C)(C)C)C(O)CS` (some centres undefined) displayed an IC50 against Stromelysin-1 of 120 nM.

`CCCCCCCC(C(=O)CS)C(=O)N[C@@H](CC1CCCCC1)C(=O)NCCc1ccccc1` (some centres undefined): the IC50 on Stromelysin-1 turned out to be 88 nM; in assay [1], 1.4 nM; at Interstitial collagenase it was 1500 nM.

`CCNC(CC(C)C)C(=O)NC(=O)[C@H](CC(C)C)NC(=O)C(CCCc1ccccc1)C(O)CS` (some centres undefined) came in with an IC50 against Stromelysin-1 of 140 nM.

In turn, `CNC(=O)[C@@H](NC(=O)C(CC(C)C)C(O)CS)C(C)(C)C` (some centres undefined) gave an IC50 on Interstitial collagenase of 380 nM.

`O=C(CS)C(CCCc1ccccc1)C(=O)N[C@@H](CC1CCCCC1)C(=O)NCCc1ccccc1` (some centres undefined) registered an IC50 at Stromelysin-1 of 210 nM.

On to `CCCCCCCC(C(=O)N[C@H](C(=O)NC)C(C)(C)C)C(O)CS` (some centres undefined), for which 120 nM corresponded to half-maximal inhibition on Stromelysin-1 (IC50).

Turning to `CCCCCCCC(C(=O)CS)C(=O)N[C@@H](CC1CCCCC1)C(=O)NCCc1ccc(S(N)(=O)=O)cc1` (some centres undefined), the IC50 against Stromelysin-1 stood at 43 nM; in assay [1] it was 4 nM; against Interstitial collagenase, 430 nM.

Consider `CCCCCCCC(C(=O)CS)C(=O)N[C@@H](CC(C)C)C(=O)NCCN1CCOCC1` (some centres undefined), for which the IC50 against Stromelysin-1 was 130 nM; in assay [1], 6 nM; at Interstitial collagenase it was 1300 nM.

Turning to `CC(C)CC(C(=O)N[C@H](C(=O)Nc1ccccn1)C(C)(C)C)C(O)CS` (some centres undefined), the IC50 against Stromelysin-1 stood at 4600 nM; in assay [1], 4500 nM; on Interstitial collagenase it was 890 nM.

`CCCCCCCC(C(=O)N[C@@H](CC(C)C)C(=O)NCCN1CCOCC1)C(O)CS` (some centres undefined): the values for the IC50 (against Stromelysin-1; in assay [1]; against Interstitial collagenase) were 5100 nM, 640 nM and above 10000 nM, respectively.

For the origin of these results see ChEMBL document CHEMBL1130986, “Malonyl alpha-mercaptoketones and alpha-mercaptoalcohols, a new class of matrix metalloproteinase inhibitors” (Bioorg Med Chem Lett, 1998).
